Reference: patent US11679097B2, “Combination product containing limonoid compound and biguanide compound” (ZHEJIANG YANGSHENGTANG INSTITUTE OF NATURAL MEDICATION CO., …, priority 2017, dated 2023)

Columns and labels:
Format in all cases: in vivo
db/db mice = assay: Blood glucose and leptin in mouse model of type II diabetes (Example 2); conditions: single administration 0.04 g/kg per day by gavage, two weeks
Source text: Effects of a Limonoid Compound, Metformin or a Combination Thereof on Blood Glucose and Leptin in a Mouse Model of Type II Diabetes In the present example, db/db mice (line name BKS.Cg-Dock7^m+/+ Lepr^db/Nju) were used to perform hypoglycemic efficacy evaluation test of animals (blood glucose level and leptin). […] Conditions for experimental feeding: as type II diabetes model mice, 6-week-old SPF-grade db/db mice were purchased from the Nanjing Model Biology Institute, and subjected to experimental feeding after 7 days of preliminary feeding. […] The experimental feed was mouse growth-stable feed (GB […]), and the daily feeding and management of the animals were under the responsibility of the animal security department, which provided the animals with sufficient padding and fresh drinking water daily. Experimental grouping: male db/db mice (20±2 g) were selected, and 18 male mice in each group were tested. […] Gavage doses: obacunone at a dose of 0.04 g/kg was gavaged per day for the obacunone group, isoobacunoic acid at a dose of 0.04 g/kg was gavaged per day for the isoobacunoic acid group, obacunone 17-β-D-glucopynoside at a dose of 0.04 g/kg was gavaged per day for the obacunone 17-β-D-glucopynoside group, metformin at a dose of 0.04 g/kg was gavaged per day for the metformin group, obacunone at a dose of 0.02 g/kg and metformin at a dose of 0.02 g/kg were simultaneously gavaged per day for the obacunone/metformin combination group, isoobacunoic acid at a dose of 0.02 g/kg and metformin at a dose of 0.02 g/kg were simultaneously gavaged per day for the isoobacunoic acid/metformin combination group, obacunone 17-β-D-glucopynoside at a dose of 0.02 g/kg and metformin at a dose of 0.02 g/kg were simultaneously gavaged per day for the obacunone 17-β-D-glucopynoside/metformin combination group, the gavage volume was 10 mL/kg, and the normal group and the model group were administrated with 10 mL/kg of distilled water. […] The data were expressed as mean and standard deviation. The data before and after were analyzed by t-test, and P<0.05 was considered statistically significant.

ICR mice = assay: Body weight, triglycerides and total cholesterol in obesity mouse model (Example 6); conditions: high-fat feed ICR mice, single administration 0.1 g/kg per day by gavage, two weeks
Source text: Effects of a Limonoid Compound, Metformin or a Combination Thereof on Body Weight, Triglycerides, and Total Cholesterol in an Obesity Mouse Model
In this example, ICR mice were used to complete the experiment for evaluation of lipid lowering and weight loss in animals (body weight, serum cholesterol, and serum triglycerides).
In this example, the limonoid compound was nomilin, and a metformin single administration group, nomilin single administration group, and metformin/nomilin combination administration groups (dose A and B groups) were set, respectively.
Conditions of experimental feeding: ICR mice, purchased from the Animal Center of Zhejiang Academy of Medical Sciences, half male and half female, body weight (20±2 g), fed with basic feed provided by the Animal Center of Zhejiang Medical Academy. It should be noted that the conditions for raising the mice were as follows: the temperature was 23±1° C., the humidity was 55±10%, the lights were turned on between 7 am and 7 pm (the lights were turned off at other time), and the mice were allowed to access to water and feed freely. The daily feeding and management of the animals were under the responsibility of the animal security department, which provided the animals with sufficient padding and fresh drinking water daily.
The ICR mice were randomly divided into the normal group and the high-fat feed group, according to body weight. The normal group was fed with ordinary feed from the beginning to the end of the experiment.
Gavage dose: nomilin at a dose of 0.1 g/kg was gavaged per day for the nomilin group, metformin at a dose of 0.1 g/kg was gavaged per day for the metformin group, nomilin at a dose of 0.05 g/kg and metformin at a dose of 0.05 g/kg were simultaneously gavaged per day for the combination dose group A, nomilin at a dose of 0.1 g/kg and metformin at a dose of 0.1 g/kg were simultaneously gavaged per day for the combination dose group B, the gavage volume was 10 mL/kg, and the normal group and the model group were administrated with 10 mL/kg of distilled water. Two weeks later, the mice were weighed, blood sampled from orbital cavity, measured to determine serum total cholesterol and triglyceride levels, and the average values of each group were obtained. SPSS 16.0 software was used for statistical analysis. The data were expressed as mean and standard deviation. The data before and after were analyzed by t-test, and P<0.05 was considered statistically significant.

STZ mice = assay: Blood glucose in mouse pancreatic islet β-cell injury model (Example 1); conditions: STZ ICR mice; single administration 0.02 g/kg per day by gavage, two weeks; 1 h after last administration
Source text: Effects of a Limonoid Compound, Metformin or a Combination Thereof on Blood Glucose in a Mouse Pancreatic Islet β-Cell Injury Model In this example, a mouse pancreatic islet β-cell injury model was established by modeling ICR mice with streptozotocin (STZ) (referred to the prior art literature: Li Nan et al., Protective effect of pine pollen on kidney damage in diabetic nephropathy mice, Science and Technology Review, 2014, 32 (4/5): 95-99), and used to complete the evaluation of hypoglycemic effect in animals (this model could simulate pancreatic islet β-cell damage state of type I and type II diabetics). […] Conditions of experimental feeding: ICR mice (20±2 g), aged 6 weeks, purchased from Zhejiang Academy of Medical Sciences, and subjected to experimental feeding after 7 days of preliminary feeding. […] The experimental feed was mouse growth-stable feed (GB […]), and the daily feeding and management of the animals were under the responsibility of the animal security department, which provided the animals with sufficient padding and fresh drinking water daily. Experimental grouping: 15 male mice were randomly selected as the normal control group. […] Gavage doses: the gavage dose was 0.02 g/kg per day for the limonin group, the gavage dose was 0.02 g/kg per day for the isolimonic acid group, the gavage dose was 0.02 g/kg per day for the limonin 17-β-D-glucopyranoside group, the gavage dose of metformin was 0.02 g/kg per day for the metformin group, limonin at a dose of 0.01 g/kg and metformin at a dose of 0.01 g/kg were simultaneously gavaged per day for the limonin/metformin combination group, isolimonic acid at a dose of 0.01 g/kg and metformin at a dose of 0.01 g/kg were simultaneously gavaged per day for the isolimonic acid/metformin combination group, limonin 17-β-D-glucopyranoside at a dose of 0.01 g/kg and metformin at a dose of 0.01 g/kg were simultaneously gavaged per day for the limonin 17-β-D-glucopyranoside/metformin combination group, isolimonic acid 17-β-D-glucopyranoside at a dose of 0.01 g/kg and metformin at a dose of 0.01 g/kg were simultaneously gavaged per day for the isolimonic acid 17-β-D-glucopyranoside/metformin combination group, the gavage volume was 10 mL/kg, and the normal group and the model group were administrated with 10 mL/kg of distilled water. […] SPSS 16.0 software was used for statistical analysis. The data were expressed as mean and standard deviation. The data before and after were analyzed by t-test, and P<0.05 was considered statistically significant.

In the case of `CN(C)C(=N)NC(=N)N` [Metformin, N,N-dimethylimidodicarbonimidic diamide, reference compound], the Leptin (db/db mice; serum, Elisa) is reported as 34.49 ± 3.38 pg/mL, the Blood glucose value (db/db mice; 1 h after last administration) is reported as 15.5 ± 3.6 mmol/L and the “Body weight gaining rate” value (ICR mice) is reported as 11.56%. It also gave a Total cholesterol (ICR mice; serum) of 3.35 ± 0.07 mmol/L, a Triglycerides (ICR mice; serum) of 1.17 ± 0.30 mmol/L and a Blood glucose value (STZ mice) of 22.6 ± 3.9 mmol/L.
